Converted amounts (≈) assume the structure as drawn.
Target: T1, Collagenase from Clostridium histolyticum
T1 construct: gene colG; commercial native collagenase (Sigma)
Experiment: absorbance at […] nm, FALGPA hydrolysis
Format: biochemical, Hathewaya histolytica
Conditions: FALGPA 0.8 mM; 0.05 M Tricine, pH 7.5, 0.4 M NaCl, 0.01 M CaCl2; 15 min preincubation

Compound: O=C(O[C@@H]1Cc2c(O)cc(O)cc2O[C@@H]1c1cc(O)c(O)c(O)c1)c1cc(O)c(O)c(O)c1 [Epigallocatechin gallate]
- IC50 (μg/mL) / Collagenase *: 120.8 ± 6.22 µg/mL (≈ 264 µM)

— article PMC7828731, “Anti-Aging Potential of Extracts from Washingtonia filifera Seeds” (Plants, 2021)
